Laboratory results: the kinase profiling compilation of Christmann-Franck et al. (2016)

Assays:
Test in all cases: radiometric filter-binding kinase assay, Kinase HotSpot
Settings in all cases: compound 0.5 µM; ATP 10 µM
ABL1 (human) = ABL1 (human) (UniProt P00519)
AKT3 (human) = AKT3 (human) (UniProt Q9Y243)
AURKA (human) = AURKA (human) (UniProt O14965)
AURKC (human) = AURKC (human) (UniProt Q9UQB9)
CDK6 CCND1 (human) = CDK6 CCND1 (human) (UniProt Q00534+P24385)
CDK6 CCND3 (human) = CDK6 CCND3 (human) (UniProt P30281+Q00534)
CHEK2 (human) = CHEK2 (human) (UniProt O96017)
CLK2 (human) = CLK2 (human) (UniProt P49760)
CSNK2A2 (human) = CSNK2A2 (human) (UniProt P19784)
DYRK1A (human) = DYRK1A (human) (UniProt Q13627)
DYRK3 (human) = DYRK3 (human) (UniProt O43781)
EGFR (human) = EGFR (human) (UniProt P00533)
EPHA2 (human) = EPHA2 (human) (UniProt P29317)
GRK7 (human) = GRK7 (human) (UniProt Q8WTQ7)
HIPK3 (human) = HIPK3 (human) (UniProt Q9H422)
KDR (human) = KDR (human) (UniProt P35968)
MELK (human) = MELK (human) (UniProt Q14680)
MKNK2 (human) = MKNK2 (human) (UniProt Q9HBH9)
MYLK (human) = MYLK (human) (UniProt Q15746)
NTRK1 (human) = NTRK1 (human) (UniProt P04629)
OXSR1 (human) = OXSR1 (human) (UniProt O95747)
PAK6 (human) = PAK6 (human) (UniProt Q9NQU5)
PDGFRB (human) = PDGFRB (human) (UniProt P09619)
PIM1 (human) = PIM1 (human) (UniProt P11309)
PIM2 (human) = PIM2 (human) (UniProt Q9P1W9)
SGK3 (human) = SGK3 (human) (UniProt Q96BR1)
STK10 (human) = STK10 (human) (UniProt O94804)
STK25 (human) = STK25 (human) (UniProt O00506)
TEK (human) = TEK (human) (UniProt Q02763)
VRK1 (human) = VRK1 (human) (UniProt Q99986)
WNK3 (human) = WNK3 (human) (UniProt Q9BYP7)
[1] = system: ARAF (human), P10398 [Y301D/Y302D]
BRAF (human) = BRAF (human) (UniProt P15056)
CAMK1G (human) = CAMK1G (human) (UniProt Q96NX5)
PAK7 (human) = PAK7 (human) (UniProt Q9P286)

Chain of NTRK1 (human) (P04629 whole entry, looked up): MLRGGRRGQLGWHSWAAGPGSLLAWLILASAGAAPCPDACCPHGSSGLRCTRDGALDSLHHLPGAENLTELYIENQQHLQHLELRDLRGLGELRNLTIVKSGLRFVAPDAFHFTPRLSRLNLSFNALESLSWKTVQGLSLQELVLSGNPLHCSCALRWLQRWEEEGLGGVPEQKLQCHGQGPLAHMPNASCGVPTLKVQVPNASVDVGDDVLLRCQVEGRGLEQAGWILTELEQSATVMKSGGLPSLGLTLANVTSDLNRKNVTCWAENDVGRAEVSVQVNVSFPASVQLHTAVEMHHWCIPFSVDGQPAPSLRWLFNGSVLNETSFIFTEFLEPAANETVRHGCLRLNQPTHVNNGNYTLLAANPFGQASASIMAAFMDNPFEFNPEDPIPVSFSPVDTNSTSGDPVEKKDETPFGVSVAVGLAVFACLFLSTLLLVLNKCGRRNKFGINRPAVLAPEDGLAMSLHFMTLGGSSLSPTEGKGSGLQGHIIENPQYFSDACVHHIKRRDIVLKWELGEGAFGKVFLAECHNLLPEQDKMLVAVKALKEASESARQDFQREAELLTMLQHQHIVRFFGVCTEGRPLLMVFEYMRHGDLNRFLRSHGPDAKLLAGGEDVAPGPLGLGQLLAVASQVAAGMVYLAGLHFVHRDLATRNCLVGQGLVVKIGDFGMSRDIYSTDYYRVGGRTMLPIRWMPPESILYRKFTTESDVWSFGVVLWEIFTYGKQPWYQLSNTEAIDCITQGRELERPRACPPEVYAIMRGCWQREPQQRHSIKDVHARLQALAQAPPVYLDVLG
Chain of VRK1 (human) (Q99986 whole entry, looked up): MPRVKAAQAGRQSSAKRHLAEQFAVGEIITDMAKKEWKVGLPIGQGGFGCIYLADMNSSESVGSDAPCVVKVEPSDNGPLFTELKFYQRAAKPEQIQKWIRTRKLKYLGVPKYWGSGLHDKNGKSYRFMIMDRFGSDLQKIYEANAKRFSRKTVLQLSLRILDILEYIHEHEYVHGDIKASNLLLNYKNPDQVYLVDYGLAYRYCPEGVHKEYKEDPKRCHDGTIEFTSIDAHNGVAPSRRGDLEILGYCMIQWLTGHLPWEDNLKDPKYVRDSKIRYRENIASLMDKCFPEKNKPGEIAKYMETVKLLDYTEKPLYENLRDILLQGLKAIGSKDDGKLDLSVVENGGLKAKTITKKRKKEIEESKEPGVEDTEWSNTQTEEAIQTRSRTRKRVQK
Chain of CLK2 (human) (P49760 whole entry, looked up): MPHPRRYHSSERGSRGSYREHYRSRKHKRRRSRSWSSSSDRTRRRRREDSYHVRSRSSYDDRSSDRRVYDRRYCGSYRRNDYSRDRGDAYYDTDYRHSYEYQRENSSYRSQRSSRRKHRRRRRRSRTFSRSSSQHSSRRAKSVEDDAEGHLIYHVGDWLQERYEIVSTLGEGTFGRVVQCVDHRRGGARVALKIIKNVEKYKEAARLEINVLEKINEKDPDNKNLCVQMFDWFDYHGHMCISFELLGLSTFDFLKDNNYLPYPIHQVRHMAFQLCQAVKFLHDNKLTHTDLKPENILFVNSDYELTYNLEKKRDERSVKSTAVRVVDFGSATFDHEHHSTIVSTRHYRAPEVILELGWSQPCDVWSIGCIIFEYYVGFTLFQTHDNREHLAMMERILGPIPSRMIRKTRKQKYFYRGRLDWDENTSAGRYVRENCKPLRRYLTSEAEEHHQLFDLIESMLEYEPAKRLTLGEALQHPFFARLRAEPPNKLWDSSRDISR
Chain of AKT3 (human) (Q9Y243 whole entry, looked up): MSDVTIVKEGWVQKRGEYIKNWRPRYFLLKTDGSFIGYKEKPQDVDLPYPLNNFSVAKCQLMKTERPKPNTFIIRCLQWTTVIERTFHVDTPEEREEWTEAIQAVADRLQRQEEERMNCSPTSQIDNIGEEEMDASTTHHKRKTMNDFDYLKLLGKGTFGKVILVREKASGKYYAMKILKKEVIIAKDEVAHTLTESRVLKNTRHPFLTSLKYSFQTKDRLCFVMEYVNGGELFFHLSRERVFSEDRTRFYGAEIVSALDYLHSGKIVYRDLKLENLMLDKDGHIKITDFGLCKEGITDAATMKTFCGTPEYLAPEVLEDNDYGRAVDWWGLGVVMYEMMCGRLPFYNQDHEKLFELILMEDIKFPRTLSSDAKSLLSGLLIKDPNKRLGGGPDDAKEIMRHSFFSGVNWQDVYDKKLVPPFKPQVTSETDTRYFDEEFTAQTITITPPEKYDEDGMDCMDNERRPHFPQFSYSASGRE
Chain of AURKC (human) (Q9UQB9 whole entry, looked up): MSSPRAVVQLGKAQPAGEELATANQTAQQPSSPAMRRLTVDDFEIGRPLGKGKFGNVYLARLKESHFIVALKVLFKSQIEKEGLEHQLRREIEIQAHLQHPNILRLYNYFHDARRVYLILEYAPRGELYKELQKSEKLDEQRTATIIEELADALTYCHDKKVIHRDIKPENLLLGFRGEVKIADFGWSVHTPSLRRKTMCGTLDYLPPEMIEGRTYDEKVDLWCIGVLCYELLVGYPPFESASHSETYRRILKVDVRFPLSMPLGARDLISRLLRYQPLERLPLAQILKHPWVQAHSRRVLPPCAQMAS
Chain of MKNK2 (human) (Q9HBH9 whole entry, looked up): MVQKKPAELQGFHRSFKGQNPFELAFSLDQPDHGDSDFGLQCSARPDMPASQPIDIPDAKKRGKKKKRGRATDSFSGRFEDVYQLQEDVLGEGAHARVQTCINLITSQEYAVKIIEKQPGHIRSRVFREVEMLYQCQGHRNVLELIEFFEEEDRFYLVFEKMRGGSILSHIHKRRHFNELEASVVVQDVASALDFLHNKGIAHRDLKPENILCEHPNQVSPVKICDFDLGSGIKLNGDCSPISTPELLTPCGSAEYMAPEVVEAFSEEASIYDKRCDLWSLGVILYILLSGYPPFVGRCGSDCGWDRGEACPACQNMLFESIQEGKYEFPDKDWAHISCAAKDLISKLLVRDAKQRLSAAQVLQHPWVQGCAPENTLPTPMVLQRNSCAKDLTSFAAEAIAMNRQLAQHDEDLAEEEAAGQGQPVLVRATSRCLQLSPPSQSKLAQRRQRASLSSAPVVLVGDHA
Chain of ARAF (human), P10398 [Y301D/Y302D] (P10398 whole entry Y301D/Y302D, looked up): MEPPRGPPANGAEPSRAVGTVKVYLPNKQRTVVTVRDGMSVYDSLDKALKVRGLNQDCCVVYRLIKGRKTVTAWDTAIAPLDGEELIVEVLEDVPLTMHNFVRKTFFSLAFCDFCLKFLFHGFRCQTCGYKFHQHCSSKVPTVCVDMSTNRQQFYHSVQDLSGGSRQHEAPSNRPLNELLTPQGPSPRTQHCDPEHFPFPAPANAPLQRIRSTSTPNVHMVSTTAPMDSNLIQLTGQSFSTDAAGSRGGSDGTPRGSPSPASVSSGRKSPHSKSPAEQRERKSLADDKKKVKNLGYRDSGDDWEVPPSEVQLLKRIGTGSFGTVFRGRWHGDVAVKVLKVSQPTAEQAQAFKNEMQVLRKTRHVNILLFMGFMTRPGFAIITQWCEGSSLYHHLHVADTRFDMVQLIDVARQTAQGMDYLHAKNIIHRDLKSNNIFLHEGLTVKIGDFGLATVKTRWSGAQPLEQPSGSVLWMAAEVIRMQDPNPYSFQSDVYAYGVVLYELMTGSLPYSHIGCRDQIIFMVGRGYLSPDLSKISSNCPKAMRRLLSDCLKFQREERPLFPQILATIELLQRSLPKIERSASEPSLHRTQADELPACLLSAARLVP
Chain of EPHA2 (human) (P29317 whole entry, looked up): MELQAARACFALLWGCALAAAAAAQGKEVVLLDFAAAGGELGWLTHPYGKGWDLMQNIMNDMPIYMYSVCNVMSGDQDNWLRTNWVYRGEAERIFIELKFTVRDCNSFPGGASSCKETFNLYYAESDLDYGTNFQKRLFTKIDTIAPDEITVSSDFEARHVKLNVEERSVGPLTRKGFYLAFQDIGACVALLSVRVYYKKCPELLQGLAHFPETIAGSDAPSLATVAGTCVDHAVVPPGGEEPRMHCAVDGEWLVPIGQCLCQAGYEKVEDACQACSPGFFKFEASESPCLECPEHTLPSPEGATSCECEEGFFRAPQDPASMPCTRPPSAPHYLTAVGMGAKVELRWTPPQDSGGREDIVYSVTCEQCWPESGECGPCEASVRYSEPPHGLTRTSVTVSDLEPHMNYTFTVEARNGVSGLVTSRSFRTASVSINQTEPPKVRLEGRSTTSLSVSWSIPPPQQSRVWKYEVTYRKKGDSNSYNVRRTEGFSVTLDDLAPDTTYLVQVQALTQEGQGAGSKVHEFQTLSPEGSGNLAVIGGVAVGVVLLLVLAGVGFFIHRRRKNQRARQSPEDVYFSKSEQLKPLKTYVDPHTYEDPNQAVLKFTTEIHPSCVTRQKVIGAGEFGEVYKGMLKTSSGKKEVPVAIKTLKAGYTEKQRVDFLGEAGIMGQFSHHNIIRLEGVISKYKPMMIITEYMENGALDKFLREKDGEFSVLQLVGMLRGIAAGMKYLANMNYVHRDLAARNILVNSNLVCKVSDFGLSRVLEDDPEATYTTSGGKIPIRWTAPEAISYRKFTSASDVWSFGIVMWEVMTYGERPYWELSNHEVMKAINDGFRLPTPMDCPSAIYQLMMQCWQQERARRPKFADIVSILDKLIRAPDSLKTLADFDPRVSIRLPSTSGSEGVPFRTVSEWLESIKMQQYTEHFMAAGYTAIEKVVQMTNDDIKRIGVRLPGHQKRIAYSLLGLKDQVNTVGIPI
Chain of STK25 (human) (O00506 whole entry, looked up): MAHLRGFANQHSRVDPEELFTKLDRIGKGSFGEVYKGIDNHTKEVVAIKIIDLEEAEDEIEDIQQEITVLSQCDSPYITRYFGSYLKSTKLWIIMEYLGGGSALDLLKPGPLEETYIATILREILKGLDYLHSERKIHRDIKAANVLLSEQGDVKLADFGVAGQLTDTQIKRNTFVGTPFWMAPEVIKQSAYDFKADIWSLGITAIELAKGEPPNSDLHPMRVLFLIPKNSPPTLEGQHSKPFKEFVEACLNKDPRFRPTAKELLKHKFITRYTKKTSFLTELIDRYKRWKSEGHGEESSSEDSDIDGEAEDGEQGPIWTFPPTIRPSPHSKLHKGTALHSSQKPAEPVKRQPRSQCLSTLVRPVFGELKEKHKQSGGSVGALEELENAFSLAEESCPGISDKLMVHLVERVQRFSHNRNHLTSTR

Row | SMILES | residual activity (AKT3 (human)) [%] | residual activity (CDK6 CCND1 (human)) [%] | residual activity (CHEK2 (human)) [%] | residual activity (CLK2 (human)) [%] | residual activity (CSNK2A2 (human)) [%] | residual activity (DYRK1A (human)) [%] | residual activity (DYRK3 (human)) [%] | residual activity (EPHA2 (human)) [%] | residual activity (GRK7 (human)) [%] | residual activity (HIPK3 (human)) [%] | residual activity (KDR (human)) [%] | residual activity (MELK (human)) [%] | residual activity (MKNK2 (human)) [%] | residual activity (MYLK (human)) [%] | residual activity (NTRK1 (human)) [%] | residual activity (OXSR1 (human)) [%] | residual activity (PAK6 (human)) [%] | residual activity (PDGFRB (human)) [%] | residual activity (PIM1 (human)) [%] | residual activity (PIM2 (human)) [%] | other results
1 | O=C1Nc2ccccc2/C1=C\c1c(Cl)[nH]c2ccccc12 | 93.6 | 105 | 99.4 | 92.7 | 94.3 | 107 | 101 | 97.3 | 106 | 100 | 96.3 | 85.7 | 93.5 | 90.4 | 90.7 | 89.1 | 101 | 102 | 88.5 | 106 | residual activity (ABL1 (human)): 95.2%; residual activity (AURKA (human)): 108%; residual activity (AURKC (human)): 89.5%; residual activity (CDK6 CCND3 (human)): 104%; residual activity (EGFR (human)): 97.5%; residual activity (SGK3 (human)): 102%; residual activity (STK10 (human)): 90.9%; residual activity (STK25 (human)): 97.7%; residual activity (TEK (human)): 97.1%; residual activity (VRK1 (human)): 104%; residual activity (WNK3 (human)): 101%
2 | Nc1nc(Nc2ccc(S(N)(=O)=O)cc2)nn1C(=O)c1c(F)cccc1F | 95 | 17.1 | 63.6 | 71.5 | 97.5 | 101 | 101 | 80.9 | 65.9 | 91.2 | 64.6 | 87.2 | 95.9 | 80 | 98.8 | 88.8 | 101 | 89.1 | 97.6 | 113 | residual activity [1]: 93.1%; residual activity (AURKC (human)): 28.3%; residual activity (BRAF (human)): 55%; residual activity (CAMK1G (human)): 101%; residual activity (CDK6 CCND3 (human)): 36.3%; residual activity (EGFR (human)): 97%; residual activity (PAK7 (human)): 85.4%; residual activity (SGK3 (human)): 114%; residual activity (STK10 (human)): 17%; residual activity (STK25 (human)): 82.3%; residual activity (TEK (human)): 84.2%; residual activity (VRK1 (human)): 90.4%; residual activity (WNK3 (human)): 98.3%
3 | O=C(NC(NC(=S)Nc1ccc(F)c([N+](=O)[O-])c1)C(Cl)(Cl)Cl)C(c1ccccc1)c1ccccc1 (stereo unspecified) | 106 | 101 | 97.6 | 93.5 | 97 | 99.8 | 100 | 103 | 101 | 105 | 92.5 | 102 | 135 | 99.6 | 107 | 98.3 | 101 | 105 | 101 | 117 | residual activity (ABL1 (human)): 101%; residual activity (AURKA (human)): 80.8%; residual activity (AURKC (human)): 93.8%; residual activity (CAMK1G (human)): 102%; residual activity (CDK6 CCND3 (human)): 99.3%; residual activity (EGFR (human)): 108%; residual activity (PAK7 (human)): 104%; residual activity (SGK3 (human)): 85.8%; residual activity (STK10 (human)): 108%; residual activity (STK25 (human)): 96.2%; residual activity (TEK (human)): 97.8%; residual activity (VRK1 (human)): 96.7%; residual activity (WNK3 (human)): 108%
4 | Nc1nc(Nc2ccc(S(N)(=O)=O)cc2)nn1C(=S)Nc1c(F)cccc1F | 96.4 | 2.89 | 1.96 | 3.81 | 81.9 | 15.3 | 98.5 | 29.9 | 96.6 | 78.2 | 6.55 | 32.7 | 17.2 | 78.8 | 31.7 | 67.6 | 81.9 | 45.6 | 90.7 | 106 | residual activity (ABL1 (human)): 4.96%; residual activity [1]: 129%; residual activity (AURKA (human)): 1.44%; residual activity (AURKC (human)): 16.2%; residual activity (BRAF (human)): 87.2%; residual activity (CAMK1G (human)): 95.9%; residual activity (CDK6 CCND3 (human)): 7.69%; residual activity (PAK7 (human)): 43.8%; residual activity (SGK3 (human)): 98.4%; residual activity (STK10 (human)): 3.96%; residual activity (STK25 (human)): 8.18%; residual activity (TEK (human)): 5.06%; residual activity (VRK1 (human)): 94.6%; residual activity (WNK3 (human)): 82.2%
5 | O=c1cc(-c2cccc3c2Sc2ccccc2S3)oc(N2CCOCC2)c1 | 109 | 98.1 | 102 | 84.7 | 96 | 95 | 84.3 | 96.2 | 99.2 | 105 | 95.9 | 99.9 | 117 | 102 | 99.4 | 96.1 | 95.6 | 102 | 77.6 | 118 | residual activity (ABL1 (human)): 99.5%; residual activity (AURKA (human)): 91.7%; residual activity (AURKC (human)): 84.9%; residual activity (CAMK1G (human)): 99.4%; residual activity (CDK6 CCND3 (human)): 106%; residual activity (EGFR (human)): 107%; residual activity (PAK7 (human)): 98.8%; residual activity (SGK3 (human)): 98.6%; residual activity (STK10 (human)): 97.1%; residual activity (STK25 (human)): 99.6%; residual activity (TEK (human)): 100%; residual activity (VRK1 (human)): 90.7%; residual activity (WNK3 (human)): 109%
6 | O=C1Cc2c([nH]c3ccc([N+](=O)[O-])cc23)-c2ccccc2N1 | 94.1 | 16.8 | 7.9 | 97.7 | 64.4 | 86.2 | 99.3 | 92.7 | 99 | 96.6 | 87.8 | 71.7 | 92.9 | 88.8 | 107 | 97 | 101 | 87.4 | 92 | 113 | residual activity (ABL1 (human)): 57.7%; residual activity [1]: 96.2%; residual activity (AURKA (human)): 96%; residual activity (BRAF (human)): 99.5%; residual activity (CAMK1G (human)): 96%; residual activity (PAK7 (human)): 71.4%; residual activity (SGK3 (human)): 102%; residual activity (STK10 (human)): 80.4%; residual activity (STK25 (human)): 83.6%; residual activity (TEK (human)): 92.1%; residual activity (VRK1 (human)): 90.8%; residual activity (WNK3 (human)): 99.7%
